Tests used:
Assay in all cases: Test on herbicidal activity by foliar application
Assay type in all cases: in vivo
Conditions in all cases: foliar spray, 1 kg/ha, plants at 1-2 leaf stage in pots, evaluated 14 days after spraying
Abutilon theophrasti = tested on: Abutilon theophrasti
Procedure, shortened: (§1)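 Wettable-powder formulations of test compounds were diluted and sprayed at 1 kg/ha onto pot-grown weeds at the 1-2 leaf stage. Activity was scored 14 days later on a 1-5 scale: 1 <30%, 2 30-50%, 3 50-70%, 4 70-90%, 5 ≥90% inhibition.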

Amaranthus retroflexus = tested on: Amaranthus retroflexus
Procedure, shortened: as §1

Bidens pilosa = tested on: Bidens pilosa
Procedure, shortened: as §1

Convolvulus arvensis = tested on: Convolvulus arvensis
Procedure, shortened: as §1

Galium aparine = tested on: Galium aparine
Procedure, shortened: as §1

Matricaria chamomilla = tested on: Matricaria chamomilla
Procedure, shortened: as §1

Setaria viridis = tested on: Setaria viridis
Procedure, shortened: as §1

Sinapis arvensis = tested on: Sinapis arvensis
Procedure, shortened: as §1

Solanum nigrum = tested on: Solanum nigrum
Procedure, shortened: as §1

Stellaria media = tested on: Stellaria media
Procedure, shortened: as §1

Veronica hederaefolia = tested on: Veronica hederaefolia
Procedure, shortened: as §1

| Structure (SMILES) | Herbicidal activity, Abutilon theophrasti (Abutilon theophrasti) | Herbicidal activity, Amaranthus retroflexus (Amaranthus retroflexus) | Herbicidal activity, Bidens pilosa (Bidens pilosa) | Herbicidal activity, Convolvulus arvensis (Convolvulus arvensis) | Herbicidal activity, Galium aparine (Galium aparine) | Herbicidal activity, Matricaria chamomilla (Matricaria chamomilla) | Herbicidal activity, Setaria viridis (Setaria viridis) | Herbicidal activity, Sinapis arvensis (Sinapis arvensis) | Herbicidal activity, Solanum nigrum (Solanum nigrum) | Herbicidal activity, Stellaria media (Stellaria media) | Herbicidal activity, Veronica hederaefolia (Veronica hederaefolia) |
| --- | --- | --- | --- | --- | --- | --- | --- | --- | --- | --- | --- |
| COC(=O)c1ccccc1S(=O)(=O)NC(=O)c1cc(Cl)cc(OC)n1 [Compound I-221, 2-[[[(4-Chloro-6-methoxypyridin-2-yl)carbonyl]-amino]sulfonyl]benzoic Acid Methyl Ester] | 4 (70% or more-90% inhibition) | 5 (90% or more inhibition) | 4 (70% or more-90% inhibition) | 4 (70% or more-90% inhibition) | 5 (90% or more inhibition) | 2 (30% or more-50% inhibition) | 3 (50% or more-70% inhibition) | 5 (90% or more inhibition) | 5 (90% or more inhibition) | 4 (70% or more-90% inhibition) | 4 (70% or more-90% inhibition) |
| COc1ccc(C(=O)NS(=O)(=O)c2ccccc2OC(F)(F)F)nc1OC [Compound I-799, N-[(2-Trifluoromethoxyphenyl)sulfonyl]-5,6-dimethoxy-2-pyridinecarboxamide] | 5 (90% or more inhibition) | 3 (50% or more-70% inhibition) | 4 (70% or more-90% inhibition) | 3 (50% or more-70% inhibition) | 4 (70% or more-90% inhibition) | 5 (90% or more inhibition) | 3 (50% or more-70% inhibition) | 5 (90% or more inhibition) | 4 (70% or more-90% inhibition) | 5 (90% or more inhibition) | 4 (70% or more-90% inhibition) |
| COc1ccc(C(=O)NS(=O)(=O)c2ccccc2C(F)(F)F)nc1 [Compound I-054, N-[(2-Trifluoromethylphenyl)sulfonyl]-5-methoxy-2-pyridinecarboxamide] | 2 (30% or more-50% inhibition) | 3 (50% or more-70% inhibition) | 5 (90% or more inhibition) | 3 (50% or more-70% inhibition) | 4 (70% or more-90% inhibition) | 5 (90% or more inhibition) | 5 (90% or more inhibition) | 5 (90% or more inhibition) | 4 (70% or more-90% inhibition) | 5 (90% or more inhibition) | 4 (70% or more-90% inhibition) |
| COc1ccc(C(=O)NS(=O)(=O)c2ccccc2S(=O)(=O)N(C)C)nc1Cl [Compound I-888, N-[[2-(N,N-Dimethylaminosulfonyl)phenyl]-sulfonyl]-6-chloro-5-methoxy-2-pyridinecarboxamide] | 5 (90% or more inhibition) | 5 (90% or more inhibition) | 5 (90% or more inhibition) | 5 (90% or more inhibition) | 5 (90% or more inhibition) | 5 (90% or more inhibition) | 5 (90% or more inhibition) | 5 (90% or more inhibition) | 5 (90% or more inhibition) | 5 (90% or more inhibition) | 4 (70% or more-90% inhibition) |
| COc1ccc(C(=O)NS(=O)(=O)c2ccccc2S(=O)(=O)N(C)OC)nc1Br [Compound I-830, 6-Bromo-5-methoxy-N-[[2-(N-methyl-N-methoxyaminosulfonyl]phenyl]sulfonyl]-2-pyridinecarboxamide] | 5 (90% or more inhibition) | 5 (90% or more inhibition) | 5 (90% or more inhibition) | 5 (90% or more inhibition) | 5 (90% or more inhibition) | 5 (90% or more inhibition) | 4 (70% or more-90% inhibition) | 5 (90% or more inhibition) | 5 (90% or more inhibition) | 5 (90% or more inhibition) | 5 (90% or more inhibition) |
| COc1ccc(C(=O)NS(=O)(=O)c2ccccc2OC(F)(F)F)nc1Br [Compound I-805, N-[[2-Trifluoromethoxyphenyl]sulfonyl]-6-bromo-5-methoxy-2-pyridinecarboxamide] | 5 (90% or more inhibition) | 5 (90% or more inhibition) | 5 (90% or more inhibition) | 5 (90% or more inhibition) | 5 (90% or more inhibition) | 5 (90% or more inhibition) | 4 (70% or more-90% inhibition) | 5 (90% or more inhibition) | 5 (90% or more inhibition) | 5 (90% or more inhibition) | 4 (70% or more-90% inhibition) |
| COc1ccc(C(=O)NS(=O)(=O)c2ccccc2OC(F)(F)F)nc1Cl [Compound I-798, N-[(2-Trifluoromethoxyphenyl)sulfonyl]-6-chloro-5-methoxy-2-pyridinecarboxamide] | 5 (90% or more inhibition) | 5 (90% or more inhibition) | 5 (90% or more inhibition) | 4 (70% or more-90% inhibition) | 5 (90% or more inhibition) | 5 (90% or more inhibition) | 3 (50% or more-70% inhibition) | 5 (90% or more inhibition) | 5 (90% or more inhibition) | 5 (90% or more inhibition) | 5 (90% or more inhibition) |
| COc1cc(Cl)nc(C(=O)NS(=O)(=O)c2ccccc2S(=O)(=O)N(C)OC)c1 [Compound I-838, 6-Chloro-4-methoxy-N-[[2-(N-methyl-N-methoxyamino)sulfonyl]phenylsulfonyl]-2-pyridinecarboxamide] | 5 (90% or more inhibition) | 4 (70% or more-90% inhibition) | 5 (90% or more inhibition) | 5 (90% or more inhibition) | 5 (90% or more inhibition) | 5 (90% or more inhibition) | 5 (90% or more inhibition) | 5 (90% or more inhibition) | 5 (90% or more inhibition) | 4 (70% or more-90% inhibition) | 4 (70% or more-90% inhibition) |
| O=C(NS(=O)(=O)c1c(Cl)cccc1Cl)c1cc(Cl)cc(Cl)n1 [Compound I-557, 4,6-Dichloro-N-[(2,6-Dichlorophenyl)sulfonyl]-pyridine-2-carboxamide] | 5 (90% or more inhibition) | 5 (90% or more inhibition) | 5 (90% or more inhibition) | 5 (90% or more inhibition) | 5 (90% or more inhibition) | 5 (90% or more inhibition) | 5 (90% or more inhibition) | 5 (90% or more inhibition) | 5 (90% or more inhibition) | 5 (90% or more inhibition) | 5 (90% or more inhibition) |
| COC(=O)c1ccccc1S(=O)(=O)NC(=O)c1cccc(Cl)n1 [Compound I-231, 2-[[[(6-Chloropyridin-2-yl)carbonyl]amino]-sulfonyl]benzoic Acid Methyl Ester] | 5 (90% or more inhibition) | 5 (90% or more inhibition) | 5 (90% or more inhibition) | 4 (70% or more-90% inhibition) | 5 (90% or more inhibition) | 5 (90% or more inhibition) | 5 (90% or more inhibition) | 5 (90% or more inhibition) | 5 (90% or more inhibition) | 5 (90% or more inhibition) | 5 (90% or more inhibition) |

— patent US6610853B1, “N-(phenylsulfonyl)picolinamide derivatives, process for producing the same, and herbicide” (Kureha Kagaku Kogyo K.K., priority 2000, dated 2003)
